Data set [1] can be described thus: Granulation effect on the polymorphic transformation of Form A. It is filed as physicochemical. The following applies: dry industrial batch of Form A; for % Form B after granulation: after industrial granulation; for % Form B prior to granulation: before industrial granulation.
The conditions of data set [2]: in some drug formulations; cited from earlier work.
The conditions of data set [3]: upon contact with a solvent or solvent mixture (e.g., ethyl acetate and ethanol); cited from earlier work.
For data set [4] the following is noted: aqueous and organic solvent systems, Form A compared with Form B; cited from earlier work.
In data set [5] the test system is MCF-7 cell line (human breast cancer cell line). The following applies: cited from earlier work.
Data set [6] relates to ovariectomized rat model of osteopenia. The note with it: cited from earlier work.
The test system of data set [7] is preclinical models of uterine stimulation. The following applies: cited from earlier work.

Molecules are shown by their SMILES.

In the case of `Cc1c(-c2ccc(O)cc2)n(Cc2ccc(OCCN3CCCCCC3)cc2)c2ccc(O)cc12` [batch 8.5], in data set [1] (listed as 8.5), the “% Form B after granulation” value is recorded as 0.6% and the “% Form B prior to granulation” value worked out at 0.5%.

Consider `Cc1c(-c2ccc(O)cc2)n(Cc2ccc(OCCN3CCCCCC3)cc2)c2ccc(O)cc12` [batch 8.6], for which the “% Form B after granulation” value in data set [1] (listed as 8.6) was 0.1%.

In the case of `Cc1c(-c2ccc(O)cc2)n(Cc2ccc(OCCN3CCCCCC3)cc2)c2ccc(O)cc12` [batch 8.4], in data set [1] (listed as 8.4), the “% Form B after granulation” value turned out to be 0.2% and the “% Form B prior to granulation” value was determined as 0.3%.

With `Cc1c(-c2ccc(O)cc2)n(Cc2ccc(OCCN3CCCCCC3)cc2)c2ccc(O)cc12` [Form A, 1-[4-(2-azepan-1-yl-ethoxy)-benzyl]-2-(4-hydroxy-phenyl)-3-methyl-1H-indol-5-ol acetic acid], the bioavailability result in data set [2] is given as “better bioavailability”. In addition, the “conversion of Form A to Form B” value in data set [3] is listed as “can easily convert to Form B”. In data set [4], the solubility result was “higher solubility”.

As for `Cc1c(-c2ccc(O)cc2)n(Cc2ccc(OCCN3CCCCCC3)cc2)c2ccc(O)cc12` [batch 8.7], in data set [1] (listed as 8.7), the “% Form B after granulation” value was determined as 0.2% and the “% Form B prior to granulation” value is listed as 0.3%.

For the compound `Cc1c(-c2ccc(O)cc2)n(Cc2ccc(OCCN3CCCCCC3)cc2)c2ccc(O)cc12` [bazedoxifene acetate, 1-[4-(2-azepan-1-yl-ethoxy)-benzyl]-2-(4-hydroxy-phenyl)-3-methyl-1H-indol-5-ol acetic acid], the estrogen antagonist behaviour entry in data set [5] is listed as “behaves as an estrogen antagonist”. In data set [6], the “effect in preventing bone loss and reducing cholesterol” value was “estrogen agonist-like effect”. The “stimulation of uterine response” value in data set [7] was “little or no stimulation of uterine response”.

(Values after US8618284B2 (Wyeth LLC, priority 2008, dated 2013).)
